# Source: ChEMBL document CHEMBL3217711, “Erythromycin B: conformational analysis and antibacterial activity” (2011)
# Calls of active or inactive are those of the source. The rule behind the calls is not given here.
# Experiments:
# Haemophilus influenzae [1] = assay: Antimicrobial activity against Haemophilus influenzae ATC 12699 compound preincubated with 0.1 M hydrochoric acid for 40 mins measured after 24 hrs by broth microdilution method; format: functional
# Streptococcus pyogenes [2] = assay: Antimicrobial activity against Streptococcus pyogenes after 24 hrs by broth microdilution method; format: functional
# Burkholderia cepacia [3] = assay: Antimicrobial activity against Burkholderia cepacia compound preincubated with 0.1 M hydrochoric acid for 40 mins measured after 24 hrs by broth microdilution method; format: functional, organism-based
# Staphylococcus aureus [4] = assay: Antimicrobial activity against Staphylococcus aureus ACC 601065 compound preincubated with 0.1 M hydrochoric acid for 40 mins measured after 24 hrs by broth microdilution method; format: functional
# Staphylococcus aureus [5] = assay: Antimicrobial activity against Staphylococcus aureus ACC 601065 after 24 hrs by broth microdilution method; format: functional; settings: ACC 601065, 24 h
# Haemophilus influenzae [6] = assay: Antimicrobial activity against Haemophilus influenzae ATC 12699 after 24 hrs by broth microdilution method; format: functional; settings: ATC 12699, 24 h
# Burkholderia cepacia [7] = assay: Antimicrobial activity against Burkholderia cepacia after 24 hrs by broth microdilution method; format: functional, organism-based
# Streptococcus pyogenes [8] = assay: Antimicrobial activity against Streptococcus pyogenes compound preincubated with 0.1 M hydrochoric acid for 40 mins measured after 24 hrs by broth microdilution method; format: functional
# Escherichia coli [9] = assay: Binding affinity to Escherichia coli MRE 600 50S ribosome in 2M LiCl in buffered D2O at pH 7.4 by NMR analysis
# Escherichia coli [10] = assay: Binding affinity to Escherichia coli MRE 600 30S ribosome in 2M LiCl in buffered D2O at pH 7.4 by NMR analysis
MIC (Haemophilus influenzae [1]) [µg/mL],MIC (Streptococcus pyogenes [2]) [µg/mL],MIC (Burkholderia cepacia [3]),MIC (Staphylococcus aureus [4]) [µg/mL],MIC (Staphylococcus aureus [5]) [µg/mL],MIC (Haemophilus influenzae [6]) [µg/mL],MIC (Burkholderia cepacia [7]),MIC (Streptococcus pyogenes [8]) [µg/mL],Activity (Escherichia coli [9]),Activity (Escherichia coli [10]),SMILES
> 4,0.2,inactive,> 8,0.9,2.2,inactive,1,,,CC[C@H]1OC(=O)[C@H](C)[C@@H](O[C@H]2C[C@@](C)(OC)[C@@H](O)[C@H](C)O2)[C@H](C)[C@@H](O[C@@H]2O[C@H](C)C[C@H](N(C)C)[C@H]2O)[C@](C)(O)C[C@@H](C)C(=O)[C@H](C)[C@@H](O)[C@]1(C)O [ERYTHROMYCIN]
3.6,0.2,inactive,1.4,0.7,2.3,inactive,0.3,Active,inactive,CC[C@H]1OC(=O)[C@H](C)[C@@H](O[C@H]2C[C@@](C)(OC)[C@@H](O)[C@H](C)O2)[C@H](C)[C@@H](O[C@@H]2O[C@H](C)C[C@H](N(C)C)[C@H]2O)[C@](C)(O)C[C@@H](C)C(=O)[C@H](C)[C@@H](O)[C@H]1C [BERYTHROMYCIN]
1.8,0.2,inactive,0.9,0.6,0.6,inactive,0.3,,,CC[C@H]1OC(=O)[C@H](C)[C@@H](O[C@H]2C[C@@](C)(OC)[C@@H](O)[C@H](C)O2)[C@H](C)[C@@H](O[C@@H]2O[C@H](C)C[C@H](N(C)C)[C@H]2O)[C@](C)(OC)C[C@@H](C)C(=O)[C@H](C)[C@@H](O)[C@]1(C)O [CLARITHROMYCIN]
